Experimental data reported in PubChem BioAssay (NCI).
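Protocol summary: plate cells (96-well), add compound at 5 concentrations, incubate 48 h, interpolate endpoints linearly. TGI marks complete inhibition of growth.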

Legend:
Experiment in all cases: DTP human tumour cell line panel, 48 h
MCF7 breast = test system: MCF7 breast
PC-3 prostate = test system: PC-3 prostate
NCI-H226 lung = test system: NCI-H226 lung
HS 578T breast = test system: HS 578T breast
UACC-257 melanoma = test system: UACC-257 melanoma
SF-295 CNS = test system: SF-295 CNS
NCI-H460 lung = test system: NCI-H460 lung
IGROV1 ovarian = test system: IGROV1 ovarian
HOP-62 NSCLC = test system: HOP-62 NSCLC
SK-MEL-2 melanoma = test system: SK-MEL-2 melanoma
OVCAR-8 ovarian = test system: OVCAR-8 ovarian
MALME-3M melanoma = test system: MALME-3M melanoma
A498 renal = test system: A498 renal
HT29 colon = test system: HT29 colon
HCC-2998 colon = test system: HCC-2998 colon
HCT-15 colon = test system: HCT-15 colon
T-47D breast = test system: T-47D breast
SNB-75 CNS = test system: SNB-75 CNS
SN12C renal = test system: SN12C renal

O=C(Nn1cnn2c(=O)c3ccccc3nc2c1=O)c1ccccc1
TGI (MCF7 breast): > 100 µM | TGI (PC-3 prostate): > 100 µM | TGI (NCI-H226 lung): > 100 µM | TGI (HS 578T breast): > 100 µM | TGI (UACC-257 melanoma): > 100 µM | TGI (SF-295 CNS): > 100 µM | TGI (NCI-H460 lung): > 100 µM | TGI (IGROV1 ovarian): > 100 µM | TGI (HOP-62 NSCLC): > 100 µM | TGI (SK-MEL-2 melanoma): > 100 µM | TGI (OVCAR-8 ovarian): > 100 µM | TGI (MALME-3M melanoma): > 100 µM | TGI (A498 renal): > 100 µM | TGI (HT29 colon): > 100 µM | TGI (HCC-2998 colon): > 100 µM | TGI (HCT-15 colon): > 100 µM | TGI (T-47D breast): > 100 µM | TGI (SNB-75 CNS): > 100 µM | TGI (SN12C renal): > 100 µM

CCN(CC)CCNc1ccc(C)c2sc3ccccc3c(=O)c12
TGI (MCF7 breast): 5.8 µM | TGI (PC-3 prostate): 11.2 µM | TGI (NCI-H226 lung): 11.8 µM | TGI (HS 578T breast): 6.63 µM | TGI (UACC-257 melanoma): 3.18 µM | TGI (SF-295 CNS): 5.66 µM | TGI (NCI-H460 lung): 5.93 µM | TGI (IGROV1 ovarian): 13.5 µM | TGI (HOP-62 NSCLC): 24.2 µM | TGI (SK-MEL-2 melanoma): 10.3 µM | TGI (OVCAR-8 ovarian): 13.3 µM | TGI (MALME-3M melanoma): 9.46 µM | TGI (A498 renal): 8.05 µM | TGI (HT29 colon): 3.52 µM | TGI (HCC-2998 colon): 14 µM | TGI (HCT-15 colon): 8.87 µM | TGI (T-47D breast): 19.4 µM | TGI (SNB-75 CNS): 7.68 µM | TGI (SN12C renal): 12.2 µM
